{
  "source": "patent US12303501B2",
  "about": "“Lipophilic active oral film formulation and method of making the same” (INTELGENX CORP., priority 2018, dated 2025)",
  "assay": "viscosity of aqueous glycerol solutions (DV1 Viscometer)",
  "format": "physicochemical",
  "conditions": "room temperature (23.5° C.), SC4-21 spindle",
  "source_text": "Specifically, larger differences in the viscosity between the oil and the aqueous phases will hinder the emulsion formation and promote phase separation. The formulations disclosed herein thus preferably include viscosity modifying agents to increase the viscosity of the aqueous phase and improve the emulsion stability by diminishing the rise of the oil droplets to the surface. Table 3 contain examples of increasing the viscosity of an aqueous solution using glycerol/glycerine. Viscosity modifiers are added to the aqueous phase to increase the viscosity in and attempt to mitigate the difference in viscosity between the oil phase and the aqueous phases and thus promote emulsion stability.",
  "data": [
    {"smiles": "OCC(O)CO", "note": "[100%, glycerol]", "values": [
      {"measurement": "Viscosity", "result": 905.0, "unit": "cP"}
    ]}
  ]
}
